The test has as its target recombinant eIF4E (Homo sapiens (Human), UniProt P06730). In words: Fluorescence polarization competition assay for eIF4E binding potency. On the procedure:
Compounds were screened for eIF4E binding potency using a fluorescence polarization competition assay. All binding reactions were performed in fluorescence polarization buffer (FPB) containing 20 mM Tris pH 7.5, 100 mM NaCl, 1 mM DTT, and 0.02% Tween-20. Final binding reactions contained 75 nM recombinant eIF4E (Beryllium, custom order), 20 nM EDA-m^7GDP-ATTO-550 (Jena Bioscience, NU-827-550) and varying concentrations of the inhibitory compound of interest. Final DMSO concentration in each reaction was 1%.
eIF4E protein was pre-incubated with EDA-m^7GDP-ATTO-550 in FPB at 2× concentrations for 5 minutes prior to the addition of compounds. Compounds (100×) were prepared using 3-fold serial dilutions in 100% DMSO, and subsequently diluted 1:50 in FPB to produce 2× stocks. 50 μl of 2× eIF4E/EDA-m^7GDP-ATTO-550 were transferred to the wells of a 96-well half-area black flat bottom polystyrene plate. 50 μl of 2× test compound were added, and binding reactions were allowed to equilibrate for 30 minutes at room temperature while protected from light. The fluorescent polarization signal was detected using a Victor 2 multi-label counter (Perkin Elmer) and the concentration necessary to achieve inhibition of eIF4E/EDA-m^7GDP-ATTO-550 binding by 50% (IC50) was calculated using data from an 8-point compound dilution series.
In Table 4A, IC50 values of less than 0.05 μM are labelled as “+++”, from 1 to 0.05 μM are labelled as “++”, and greater than 1 μM are labelled as “+”. ND=not determined.

The mark [1] stands for this setting: inhibition of eIF4E/EDA-m7GDP-ATTO-550 binding, calculated IC50 values, Table 4B, read-out: IC50.
Setting [2] is: fluorescence polarization competition, 75 nM recombinant eIF4E, 20 nM EDA-m7GDP-ATTO-550, IC50 class, read-out: elF4E FP.
Where [3] appears, read: inhibition of eIF4E/EDA-m7GDP-ATTO-550 binding by 50%, Table 4B calculated values, read-out: IC50.

We go through 35 compounds from patent US11286268B1, “EIF4E-inhibiting compounds and methods” (EFFECTOR THERAPEUTICS, INC., priority 2019, dated 2022).

Molecules are shown by their SMILES. pIC50: −log10 of the molar value. Read-outs that look alike come from different tables or passages of the source.

Sequence of recombinant eIF4E (P06730 whole entry): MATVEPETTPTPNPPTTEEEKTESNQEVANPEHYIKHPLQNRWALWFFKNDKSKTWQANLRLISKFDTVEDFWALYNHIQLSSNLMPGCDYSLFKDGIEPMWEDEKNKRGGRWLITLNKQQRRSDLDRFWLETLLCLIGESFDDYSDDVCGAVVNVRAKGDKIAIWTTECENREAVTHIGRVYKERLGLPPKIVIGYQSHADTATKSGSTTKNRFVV

With `Cc1nc2cnc(N3CCN(CC(F)(F)F)CC3)c(C#N)c2c(=O)n1CCOc1ccc(Cl)cc1-c1ccnc2c(C(=O)O)csc12` [compound 1304], the pIC50 under setting [1] was 7.73.

As for `Cc1cc(-c2cc(Cl)ccc2OCCn2c(C)nc3cc(C(F)(F)F)c(-c4ccncc4C)nc3c2=O)c2scc(C(=O)O)c2n1` [compound 436], the pIC50 is over 7.30 under setting [2] and 8.14 under setting [3].

Consider `Cc1nc2cc(C(F)(F)F)c(N3CCN(C)CC3)nc2c(=O)n1CC#Cc1ccc(Cl)cc1-c1ccnc2c(C(=O)O)csc12` [compound 682], for which the pIC50 by setting is: under setting [2], over 7.30; under setting [3], 8.21.

`Cc1cc(-c2cc(Cl)ccc2OCCn2c(C)nc3cc(Cl)c(Cl)c(C#N)c3c2=O)c2scc(C(=O)O)c2n1` [compound 582]: the pIC50 under setting [2] was over 7.30 and the pIC50 under setting [3] was 7.90.

`Cc1nc2cnc(N(C)C3CCN(CC(F)(F)CO)CC3)c(C#N)c2c(=O)n1CC#Cc1ccc(Cl)cc1-c1ccnc2c(C(=O)O)csc12` [compound 1132]: the pIC50 is over 7.30 under setting [2] and 7.88 under setting [3].

In the case of `COC(=O)c1csc2c(-c3cc(Cl)ccc3OCCn3c(C)nc4cc(C(F)(F)F)c(N5CCN(C)CC5)c(C#N)c4c3=O)cc(C)nc12` [compound 1391], under setting [1], the pIC50 is 7.42.

Regarding `CNc1ncc(-c2cc(Cl)ccc2OCCn2cnc3cnc(C#N)cc3c2=O)nc1C(=O)O` [compound 88], the pIC50 is, setting by setting: under setting [2], under 6.00; under setting [3], 5.77.

Regarding `Cc1nc2c(C(F)(F)F)ccc(C#N)c2c(=O)n1CCOc1ccc(Cl)cc1-c1ccnc2c(C(=O)O)csc12` [compound 358], the pIC50 reads like this: under setting [2], 6.00 to 7.30; under setting [3], 7.06.

As to `Cc1nc2cnc(-c3cccc4c3CCN(CC(F)F)C4)c(C#N)c2c(=O)n1CC#Cc1ccc(Cl)cc1-c1ccnc2c(C(=O)O)csc12` [compound 1558], under setting [1], the pIC50 is 7.16.

As to `Cc1nc2cnc(N(C)C3CCN(CC4(F)CCC4)CC3)c(C#N)c2c(=O)n1CC#Cc1ccc(Cl)cc1-c1ccnc2c(C(=O)O)csc12` [compound 1174], the pIC50 is over 7.30 under setting [2] and 8.03 under setting [3].

Turning to `Cc1cc(F)cc(-c2c(C(F)(F)F)cc3nc(C)n(CCOc4ccc(Cl)cc4-c4cc(C)nc5c(C(=O)O)csc45)c(=O)c3c2C#N)n1` [compound 684], the pIC50 reads like this: under setting [2], over 7.30; under setting [3], 7.82.

As for `Cc1cc(-c2cc(Cl)ccc2C#CCn2c(C)nc3c(C)nc(N4CCN(C)CC4)c(C#N)c3c2=O)c2scc(C(=O)O)c2n1` [compound 450], the pIC50 runs as follows: under setting [2], over 7.30; under setting [3], 8.11.

Turning to `Cc1cc(-c2c(F)cc3nc(C)n(CCOc4ccc(Cl)cc4-c4cc(C)nc5c(C(=O)O)csc45)c(=O)c3c2C#N)ccn1` [compound 778], the pIC50 under setting [2] was over 7.30 and the pIC50 under setting [3] is 10.15.

`Cc1cc(-c2cc(Cl)ccc2OCCn2c(C)cc3cnc(N(C)C)c(C#N)c3c2=O)c2scc(C(=O)O)c2n1` [compound 1002]: the pIC50 under setting [2] is over 7.30 and the pIC50 under setting [3] was 8.63.

As for `Cc1nc2cc(C(F)(F)F)c(N3CCN(CC(F)F)CC3)c(C#N)c2c(=O)n1CCOc1ccc(Cl)cc1-c1cccc(C(=O)O)c1` [compound 377], the pIC50 under setting [2] was 6.00 to 7.30 and the pIC50 under setting [3] is 7.21.

For the compound `Cc1sc2c(-c3cc(Cl)ccc3OCCn3c(C)nc4cc(C(F)(F)F)c(N5CCN(C)CC5)cc4c3=O)ccnc2c1C(=O)O` [compound 1210], the pIC50 was over 7.30 under setting [2] and 7.32 under setting [1].

With `Cc1ccccc1S(=O)(=O)NC(=O)c1csc2c(-c3cc(Cl)ccc3C#CCn3c(C)nc4cnc(N(C)C5CCN(CC(F)(F)F)CC5)c(C#N)c4c3=O)ccnc12` [compound 1549], the pIC50 under setting [1] is 7.58.

Consider `Cc1nc2cnc(N(C)C3CCN(CC(F)F)CC3)c(C#N)c2c(=O)n1CC#Cc1ccc(Cl)cc1-c1ccnc2c(C(=O)O)csc12` [compound 1112], for which the pIC50 by setting is: under setting [2], over 7.30; under setting [3], 7.70.

On to `Cc1nc2ccc(CCN(C)C)c(C#N)c2c(=O)n1CCOc1ccc(Cl)cc1-c1ccc(C(F)F)c2c(C(=O)O)csc12` [compound 577], for which the pIC50 runs as follows: under setting [2], over 7.30; under setting [3], 7.40.

For the compound `CCN(c1ncc2nc(C)n(CC#Cc3ccc(Cl)cc3-c3ccnc4c(C(=O)O)csc34)c(=O)c2c1C#N)C1CCN(C2CC2)CC1` [compound 1600], the pIC50 under setting [1] is 7.69.

In the case of `Cc1nc2cc(OC(F)F)cc(C#N)c2c(=O)n1CCOc1ccc(Cl)cc1-c1ccnc2c(C(=O)O)csc12` [compound 1940], the pIC50 under setting [1] is 7.46.

As to `Cc1nc2cnc(C3CCN(CC(F)(F)F)CC3)c(C#N)c2c(=O)n1CCOc1ccc(Cl)cc1-c1ccnc2c(C(=O)O)csc12` [compound 1117], the pIC50 under setting [2] is over 7.30 and the pIC50 under setting [3] was 7.87.

Regarding `Cc1nc2cc(C(F)(F)F)c(CN3[C@@H]4CC[C@H]3COC4)c(C#N)c2c(=O)n1CCOc1ccc(Cl)cc1-c1ccnc2c(C(=O)O)csc12` [compound 523], the pIC50 by setting is: under setting [2], over 7.30; under setting [3], 7.62.

With `Cc1nc2cnc(CCN(C)CC(F)F)c(C#N)c2c(=O)n1CCOc1ccc(Cl)cc1-c1ccnc2c(C(=O)O)csc12` [compound 1485], under setting [1], the pIC50 was 7.64.

As for `CNC(=O)Cc1cc2c(=O)n(CCOc3ccc(Cl)cc3-c3cccc(C(=O)O)c3)cnc2cn1` [compound 137], the pIC50 runs as follows: under setting [2], 6.00 to 7.30; under setting [3], 6.04.

Take `CCN(c1ncc2nc(C)n(CC#Cc3ccc(Cl)cc3-c3ccnc4c(C(=O)O)csc34)c(=O)c2c1C#N)C1CCN(CC(F)F)CC1` [compound 1535]: the pIC50 under setting [1] was 7.76.

Take `Cc1cc(-c2cc(Cl)ccc2OCCn2c(C)nc3nc(C(F)(F)F)c(C)nc3c2=O)c2scc(C(=O)O)c2n1` [compound 760]: the pIC50 runs as follows: under setting [2], over 7.30; under setting [3], 8.19.

In the case of `Cc1cc(-c2cc(Cl)ccc2OCCn2c(C)nc3cc(Cl)c(N4CCC4)c(C#N)c3c2=O)c2scc(C(=O)O)c2n1` [compound 752], the pIC50 is, setting by setting: under setting [2], over 7.30; under setting [3], 7.56.

In the case of `N#Cc1ccc2ncn(CCOc3ccc(Cl)cc3-c3cccc(C(=O)O)c3)c(=O)c2c1C#N` [compound 27], the pIC50 was 6.00 to 7.30 under setting [2] and 6.83 under setting [3].

With `O=C(O)c1cccc(-c2cc(Cl)ccc2OCCn2cnc3nnccc3c2=O)c1` [compound 18], the pIC50 is, setting by setting: under setting [2], 6.00 to 7.30; under setting [3], 6.08.

As to `Cc1cc(-c2cc(Cl)ccc2OCCn2c(C)nc3cc(C(F)(F)F)c(N4CCN(CCF)CC4)c(C#N)c3c2=O)c2scc(C(=O)O)c2n1` [compound 430], the pIC50 was over 7.30 under setting [2] and 8.05 under setting [3].

For `CNc1c(Cl)cc2nc(C)n(CCOc3ccc(Cl)cc3-c3cc(C)nc4c(C(=O)O)csc34)c(=O)c2c1C#N` [compound 694], the pIC50 is, setting by setting: under setting [2], over 7.30; under setting [3], 7.72.

In the case of `Cc1nc2c(C(F)(F)F)ccc(C#N)c2c(=O)n1CCOc1ccc(Cl)cc1-c1cccc(C(=O)O)c1` [compound 142], the pIC50 is 6.00 to 7.30 under setting [2] and 6.82 under setting [3].

Consider `CCN(Cc1ccccc1)S(=O)(=O)c1ccc2nc(C)n(CCOc3ccc(Cl)cc3-c3ccnc4c(C(=O)O)csc34)c(=O)c2c1C#N` [compound 253], for which the pIC50 runs as follows: under setting [2], over 7.30; under setting [3], 7.34.

`Cc1nc2cnc(N3CCN(CC(F)(F)F)CC3)c(C#N)c2c(=O)n1CC#Cc1ccc(Cl)cc1-c1ccnc2c(C(=O)O)csc12` [compound 860]: the pIC50 is over 7.30 under setting [2] and 7.99 under setting [3].
